Data on 26 compounds can be found in US12168012B2, “NLRP3 inflammasome inhibitors” (Novartis AG, priority 2018, dated 2024).

Structures can show the parent of a compound that is named as a salt.

The subject of one assay is NLRP3 inflammasome. Kind of assay: IL-1β secretion assay. The format is cell-based. The following applies: PMA-differentiated THP-1 cells, 15 μM nigericin, HTRF. The method in brief: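 PMA-differentiated THP-1 cells stimulated with nigericin to trigger NLRP3-dependent IL-1β secretion, measured by HTRF after 3 h. Viability/pyroptosis monitored with PrestoBlue. IC50 from logistic fit of % inhibition vs concentration with Hill coefficient.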
In general terms: Time-resolved FRET reads energy transfer from a long-lived donor to a nearby acceptor.

Assay [1] concerns NF-kB-dependent TNF-α secretion. Kind of assay: TNF-α secretion assay (counterscreen). It is filed as cell-based. Conditions: Homo sapiens; THP-1 cells, Pam3CSK4-stimulated, 3 hours, HTRF. The method in brief:
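Undifferentiated THP-1 cells, rested overnight, given compound then stimulated with 1 μg/mL LPS or 100 ng/mL Pam3CSK4 for 3 hours. Supernatant TNF-α measured by HTRF; IC50 from four-parameter logistic fit of % inhibition versus concentration, with viability monitored.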

Turning to `CC(C)c1nn(CC(=O)NC2CC2)c(=O)c2cc3scnc3n12` [Ex 51, N-Cyclopropyl-2-(5-isopropyl-8-oxothiazolo[5′,4′:4,5]pyrrolo[1,2-d][1,2,4]triazin-7(8H)-yl)acetamide], the IC50 with NLRP3 inflammasome (Homo sapiens, THP-1, 3 h) was 0.138 µM; in assay [1], more than 100 µM.

For the compound `CC(C)c1nn(CC(=O)N[C@@H]2CCC[C@@](C)(O)C2)c(=O)c2cc3sc(Cl)cc3n12` [Ex 27, 2-(2-Chloro-5-isopropyl-8-oxothieno[2′,3′:4,5]pyrrolo[1,2-d][1,2,4]triazin-7(8H)-yl)-N-((1R,3R)-3-hydroxy-3-methylcyclohexyl)acetamide], the IC50 with NLRP3 inflammasome (Homo sapiens, THP-1, 3 h) is 0.018 µM; in assay [1], more than 100 µM.

In the case of `CC(C)c1nn(CC(=O)N[C@@H]2CCCN(C3CC3)C2)c(=O)c2cc3sc(Cl)cc3n12` [Ex 124, (R)-2-(2-Chloro-5-isopropyl-8-oxothieno[2′,3′:4,5]pyrrolo[1,2-d][1,2,4]triazin-7(8H)-yl)-N-(1-cyclopropylpiperidin-3-yl)acetamide], the IC50 was 0.0009 µM in the assay with NLRP3 inflammasome (Homo sapiens, THP-1, 3 h) and more than 100 µM in assay [1].

In the case of `CC(C)c1nn(CC(=O)N[C@@H]2CCC(=O)NC2)c(=O)c2cc3sc(Cl)cc3n12` [Ex 19, (R)-2-(2-Chloro-5-isopropyl-8-oxothieno[2′,3′:4,5]pyrrolo[1,2-d][1,2,4]triazin-7(8H)-yl)-N-(6-oxopiperidin-3-yl)acetamide], the half-maximal inhibitory concentration (IC50) with NLRP3 inflammasome (Homo sapiens, THP-1, 3 h) was 0.0486 µM; in assay [1], more than 100 µM.

With `CC(C)c1nn(CC(=O)NCC(C)(C)CO)c(=O)c2cc3sc(Cl)cc3n12` [Ex 20, 2-(2-Chloro-5-isopropyl-8-oxothieno[2′,3′:4,5]pyrrolo[1,2-d][1,2,4]triazin-7(8H)-yl)-N-(3-hydroxy-2,2-dimethylpropyl)acetamide], the IC50 in the assay with NLRP3 inflammasome (Homo sapiens, THP-1, 3 h) was 0.0598 µM; in assay [1], more than 100 µM.

`CC(C)(O)c1nn(CC(=O)N[C@@H]2CCCN(CC(F)(F)F)C2)c(=O)c2cc3sc(Cl)cc3n12` [Ex 82, (R)-2-(2-Chloro-5-(2-hydroxypropan-2-yl)-8-oxothieno[2′,3′:4,5]pyrrolo[1,2-d][1,2,4]triazin-7(8H)-yl)-N-(1-(2,2,2-trifluoroethyl)piperidin-3-yl)acetamide]: the 50% inhibitory concentration (IC50) is 0.0422 µM in the assay on NLRP3 inflammasome (Homo sapiens, THP-1, 3 h) and more than 100 µM in assay [1].

Take `CC(C)(O)c1nn(CC(=O)N[C@@H]2CCC[C@@](C)(O)C2)c(=O)c2cc3sc(Cl)cc3n12` [Ex 83, 2-(2-Chloro-5-(2-hydroxypropan-2-yl)-8-oxothieno[2′,3′:4,5]pyrrolo[1,2-d][1,2,4]triazin-7(8H)-yl)-N-((1R,3R)-3-hydroxy-3-methylcyclohexyl)acetamide]: the IC50 with NLRP3 inflammasome (Homo sapiens, THP-1, 3 h) was 0.0162 µM; in assay [1] it was more than 100 µM.

Take `CC(C)c1nn(CC(=O)N[C@@H]2CCCN(CCF)C2)c(=O)c2cc3sc(Cl)cc3n12` [Ex 28, (R)-2-(2-Chloro-5-isopropyl-8-oxothieno[2′,3′:4,5]pyrrolo[1,2-d][1,2,4]triazin-7(8H)-yl)-N-(1-(2-fluoroethyl)piperidin-3-yl)acetamide]: the IC50 was 0.0133 µM in the assay with NLRP3 inflammasome (Homo sapiens, THP-1, 3 h) and more than 100 µM in assay [1].

As for `Cc1cc2c(cc3c(=O)n(CC(=O)N[C@@H]4CCC(=O)NC4)nc(C(C)C)n32)s1` [Ex 39, (R)-2-(5-Isopropyl-2-methyl-8-oxothieno[2′,3′:4,5]pyrrolo[1,2-d][1,2,4]triazin-7(8H)-yl)-N-(6-oxopiperidin-3-yl)acetamide], the IC50 is 0.54 µM in the assay with NLRP3 inflammasome (Homo sapiens, THP-1, 3 h) and more than 100 µM in assay [1].

With `Cc1cc2c(cc3c(=O)n(CC(=O)N[C@@H]4CCCNC4)nc(C(C)C)n32)s1` [Ex 38, (R)-2-(5-Isopropyl-2-methyl-8-oxothieno[2′,3′:4,5]pyrrolo[1,2-d][1,2,4]triazin-7(8H)-yl)-N-(piperidin-3-yl)acetamide], the IC50 in the assay on NLRP3 inflammasome (Homo sapiens, THP-1, 3 h) was 0.088 µM; in assay [1], more than 100 µM.

For the compound `CN1C[C@H](NC(=O)Cn2nc(C(C)(C)O)n3c(cc4sc(Cl)cc43)c2=O)CCC1=O` [Ex 29, (R)-2-(2-Chloro-5-(2-hydroxypropan-2-yl)-8-oxothieno[2′,3′:4,5]pyrrolo[1,2-d][1,2,4]triazin-7(8H)-yl)-N-(1-methyl-6-oxopiperidin-3-yl)acetamide], the concentration for half-maximal inhibition (IC50) with NLRP3 inflammasome (Homo sapiens, THP-1, 3 h) is 0.0357 µM; in assay [1], more than 100 µM.

In the case of `CC(C)c1nn(CC(=O)N[C@H]2C[C@@](C)(O)C2)c(=O)c2cc3sc(Cl)cc3n12` [Ex 72, 2-(2-Chloro-5-isopropyl-8-oxothieno[2′,3′:4,5]pyrrolo[1,2-d][1,2,4]triazin-7(8H)-yl)-N-((1s,3s)-3-hydroxy-3-methylcyclobutyl)acetamide], the IC50 in the assay on NLRP3 inflammasome (Homo sapiens, THP-1, 3 h) was 0.0004 µM; in assay [1] it was more than 100 µM.

Turning to `CC(O)c1nn(CC(=O)N[C@@H]2CCCN(C)C2)c(=O)c2cc3sc(Cl)cc3n12` (stereo partly drawn) [Ex 44, 2-(2-Chloro-5-(1-hydroxyethyl)-8-oxothieno[2′,3′:4,5]pyrrolo[1,2-d][1,2,4]triazin-7(8H)-yl)-N-((R)-1-methylpiperidin-3-yl)acetamide], the IC50 with NLRP3 inflammasome (Homo sapiens, THP-1, 3 h) was 0.112 µM; in assay [1], more than 100 µM.

For the compound `CC(C)c1nn(CC(=O)NC23CCC(O)(CC2)CC3)c(=O)c2cc3sc(Cl)cc3n12` [Ex 76, 2-(2-Chloro-5-isopropyl-8-oxothieno[2′,3′:4,5]pyrrolo[1,2-d][1,2,4]triazin-7(8H)-yl)-N-(4-hydroxybicyclo[2.2.2]octan-1-yl)acetamide], the IC50 in the assay with NLRP3 inflammasome (Homo sapiens, THP-1, 3 h) is 0.0451 µM; in assay [1], more than 100 µM.

For `CC(C)c1nn(CC(=O)N[C@@H]2CCCOC2)c(=O)c2cc3sc(Cl)cc3n12` [Ex 59, (R)-2-(2-Chloro-5-isopropyl-8-oxothieno[2′,3′:4,5]pyrrolo[1,2-d][1,2,4]triazin-7(8H)-yl)-N-(tetrahydro-2H-pyran-3-yl)acetamide], the IC50 was 0.201 µM in the assay with NLRP3 inflammasome (Homo sapiens, THP-1, 3 h) and more than 100 µM in assay [1].

For `CC(C)c1nn(CC(=O)N[C@@H]2CCC(=O)N(C)C2)c(=O)c2cc3scnc3n12` [Ex 49, (R)-2-(5-Isopropyl-8-oxothiazolo[5′,4′:4,5]pyrrolo[1,2-d][1,2,4]triazin-7(8H)-yl)-N-(1-methyl-6-oxopiperidin-3-yl)acetamide], the IC50 in the assay with NLRP3 inflammasome (3 hours) was 0.0264 µM; in assay [1], more than 100 µM.

`CC(C)c1nn(CC(=O)N[C@@H]2CCCN(CCF)C2)c(=O)c2cc3scnc3n12` [Ex 89, (R)-N-(1-(2-Fluoroethyl)piperidin-3-yl)-2-(5-isopropyl-8-oxothiazolo[5′,4′:4,5]pyrrolo[1,2-d][1,2,4]triazin-7(8H)-yl)acetamide]: the IC50 in the assay on NLRP3 inflammasome (Homo sapiens, THP-1, 3 h) is 0.0248 µM; in assay [1], more than 100 µM.

As to `CC(O)c1nn(CC(=O)N[C@@H]2CCCNC2)c(=O)c2cc3sc(Cl)cc3n12` (stereo partly drawn) [Ex 43, 2-(2-Chloro-5-(1-hydroxyethyl)-8-oxothieno[2′,3′:4,5]pyrrolo[1,2-d][1,2,4]triazin-7(8H)-yl)-N-((R)-piperidin-3-yl)acetamide hydrochloride], the IC50 in the assay with NLRP3 inflammasome (Homo sapiens, THP-1, 3 h) is 2.05 µM; in assay [1] it was more than 100 µM.

`CC(C)c1nn(CC(=O)N[C@@H]2CCCN(C3CC3)C2)c(=O)c2cc3scnc3n12` [Ex 127, (R)-N-(1-Cyclopropylpiperidin-3-yl)-2-(5-isopropyl-8-oxothiazolo[5′,4′:4,5]pyrrolo[1,2-d][1,2,4]triazin-7(8H)-yl)acetamide]: the IC50 with NLRP3 inflammasome (Homo sapiens, THP-1, 3 h) is 0.0042 µM; in assay [1] it was more than 100 µM.

Regarding `CC1(C)CC(NC(=O)Cn2nc(C(C)(C)O)n3c(cc4sc(Cl)cc43)c2=O)C1` [Ex 25, 2-(2-Chloro-5-(2-hydroxypropan-2-yl)-8-oxothieno[2′,3′:4,5]pyrrolo[1,2-d][1,2,4]triazin-7(8H)-yl)-N-(3,3-dimethylcyclobutyl)acetamide], the IC50 with NLRP3 inflammasome (Homo sapiens, THP-1, 3 h) is 0.0785 µM; in assay [1], more than 100 µM.

In the case of `CC(C)c1nn(CC(=O)NC23CC(N)(C2)C3)c(=O)c2cc3sc(Cl)cc3n12` [Ex 115, N-(3-Aminobicyclo[1.1.1]pentan-1-yl)-2-(2-chloro-5-isopropyl-8-oxothieno[2′,3′:4,5]pyrrolo[1,2-d][1,2,4]triazin-7(8H)-yl)acetamide], the IC50 is 0.172 µM in the assay on NLRP3 inflammasome (Homo sapiens, THP-1, 3 h) and more than 100 µM in assay [1].

Turning to `Cc1nc2c(cc3c(=O)n(CC(=O)NC4CC4)nc(C(C)C)n32)s1` [Ex 96, N-Cyclopropyl-2-(5-isopropyl-2-methyl-8-oxothiazolo[5′,4′:4,5]pyrrolo[1,2-d][1,2,4]triazin-7(8H)-yl)acetamide], the IC50 is 1.04 µM in the assay with NLRP3 inflammasome (Homo sapiens, THP-1, 3 h) and more than 33 µM in assay [1].

On to `CC(C)c1nn(CC(=O)N[C@@H]2CCCN(CC(C)(C)O)C2)c(=O)c2cc3sc(Cl)cc3n12` [Ex 130, (R)-2-(2-Chloro-5-isopropyl-8-oxothieno[2′,3′:4,5]pyrrolo[1,2-d][1,2,4]triazin-7(8H)-yl)-N-(1-(2-hydroxy-2-methylpropyl)piperidin-3-yl)acetamide], for which the IC50 was 0.0204 µM with NLRP3 inflammasome (Homo sapiens, THP-1, 3 h) and more than 100 µM in assay [1].

On to `CC(C)(O)c1nn(CC(=O)Nc2ccncn2)c(=O)c2cc3sc(Cl)cc3n12` [Ex 9, 2-(2-Chloro-5-(2-hydroxypropan-2-yl)-8-oxothieno[2′,3′:4,5]pyrrolo[1,2-d][1,2,4]triazin-7(8H)-yl)-N-(pyrimidin-4-yl)acetamide], for which the IC50 was 0.0079 µM in the assay on NLRP3 inflammasome (Homo sapiens, THP-1, 3 h) and more than 100 µM in assay [1].

As to `CC(O)c1nn(CC(=O)Nc2cccnc2)c(=O)c2cc3sc(Cl)cc3n12` (stereo not shown) [Ex 42, 2-(2-Chloro-5-(1-hydroxyethyl)-8-oxothieno[2′,3′:4,5]pyrrolo[1,2-d][1,2,4]triazin-7(8H)-yl)-N-(pyridin-3-yl)acetamide], the IC50 was 1.1 µM with NLRP3 inflammasome (Homo sapiens, THP-1, 3 h) and more than 100 µM in assay [1].

For `CC(C)c1nn(CC(=O)NC2CC3(COC3)C2)c(=O)c2cc3sc(Cl)cc3n12` [Ex 24, 2-(2-Chloro-5-isopropyl-8-oxothieno[2′,3′:4,5]pyrrolo[1,2-d][1,2,4]triazin-7(8H)-yl)-N-(2-oxaspiro[3.3]heptan-6-yl)acetamide], the IC50 with NLRP3 inflammasome (Homo sapiens, THP-1, 3 h) was 0.0395 µM; in assay [1], more than 100 µM.

Broadly, the IC50 is the concentration at which inhibition is half-maximal. Low readings indicate higher potency, high ones lower potency.
